In patent publication US10405547B2, “Substituted cyclic amides as herbicides” (FMC Corporation, priority 2015, dated 2019):

Legend:
Type in all cases: in vivo
Settings in all cases: 0 to 100 scale (0 no effect, 100 complete control)
[1] = system: barnyardgrass (Echinochloa crus-galli); assay: Test A preemergence, barnyardgrass
Excerpt: (§1) Test A Seeds of plant species selected from barnyardgrass (Echinochloa crus-galli), kochia (Kochia scoparia), ragweed (common ragweed, Ambrosia elatior), ryegrass, Italian (Lolium multiflorum), foxtail, giant (Setaria faberii), and pigweed (Amaranthus retroflexus), were planted into a blend of loam soil and sand and treated preemergence with a directed soil spray using test chemicals formulated in a non-phytotoxic solvent mixture which included a surfactant.
(§2) At the same time, plants selected from these weed species and also blackgrass (Alopecurus myosuroides), galium (catchweed bedstraw, Galium aparine), wheat (Triticum aestivum), and corn (Zea mays) were planted in pots containing the same blend of loam soil and sand and treated with postemergence applications of test chemicals formulated in the same manner. Plants ranged in height from 2 to 10 cm and were in the one- to two-leaf stage for the postemergence treatment. Treated plants and untreated controls were maintained in a greenhouse for approximately 10 days, after which time all treated plants were compared to untreated controls and visually evaluated for injury. Plant response ratings, summarized in Table A, are based on a 0 to 100 scale where 0 is no effect and 100 is complete control. A dash (-) response means no test result.

kochia (Kochia scoparia) [2] = assay: Test A preemergence, kochia
Excerpt: as §1, §2

[3] = system: ragweed (common ragweed, Ambrosia elatior); assay: Test A preemergence, ragweed
Excerpt: as §1, §2

[4] = system: ryegrass, Italian (Lolium multiflorum); assay: Test A preemergence, Italian ryegrass
Excerpt: as §1, §2

[5] = system: foxtail, giant (Setaria faberii); assay: Test A preemergence, giant foxtail
Excerpt: as §1, §2

[6] = system: pigweed (Amaranthus retroflexus); assay: Test A preemergence, pigweed
Excerpt: as §1, §2

[7] = system: barnyardgrass (Echinochloa crus-galli); assay: Test A postemergence, barnyardgrass
Excerpt: as §1, §2

kochia (Kochia scoparia) [8] = assay: Test A postemergence, kochia
Excerpt: as §1, §2

[9] = system: ragweed (common ragweed, Ambrosia elatior); assay: Test A postemergence, ragweed
Excerpt: as §1, §2

[10] = system: ryegrass, Italian (Lolium multiflorum); assay: Test A postemergence, Italian ryegrass
Excerpt: as §1, §2

[11] = system: foxtail, giant (Setaria faberii); assay: Test A postemergence, giant foxtail
Excerpt: as §1, §2

[12] = system: pigweed (Amaranthus retroflexus); assay: Test A postemergence, pigweed
Excerpt: as §1, §2

[13] = system: blackgrass (Alopecurus myosuroides); assay: Test A postemergence, blackgrass
Excerpt: as §1, §2

[14] = system: galium (catchweed bedstraw, Galium aparine); assay: Test A postemergence, galium
Excerpt: as §1, §2

[15] = system: wheat (Triticum aestivum); assay: Test A postemergence, wheat
Excerpt: as §1, §2

corn (Zea mays) = assay: Test A postemergence, corn
Excerpt: as §1, §2

[16] = 125 g ai/ha, visual injury, approximately 10 days
[17] = 500 g ai/ha, visual injury, approximately 10 days

| Structure (SMILES) | Plant response rating, Barnyardgrass ([1]; 31 g ai/ha) | Plant response rating, Barnyardgrass ([1]; 125 g ai/ha) | Plant response rating, Kochia (kochia (Kochia scoparia) [2]; 31 g ai/ha) | Plant response rating, Kochia (kochia (Kochia scoparia) [2]; 125 g ai/ha) | Plant response rating, Ragweed ([3]; 31 g ai/ha) | Plant response rating, Ragweed ([3]; 125 g ai/ha) | Plant response rating, Ryegrass, Italian ([4]; 31 g ai/ha) | Plant response rating, Ryegrass, Italian ([4]; 125 g ai/ha) | Plant response rating, Foxtail, Giant ([5]; 125 g ai/ha) | Plant response rating, Pigweed ([6]; 125 g ai/ha) | Plant response rating, Barnyardgrass [7, 16] | Plant response rating, Kochia (kochia (Kochia scoparia) [8]; [16]) | Plant response rating, Ragweed [9, 16] | Plant response rating, Ryegrass, Italian [10, 16] | Plant response rating, Foxtail, Giant [11, 16] | Plant response rating, Pigweed [12, 16] | Plant response rating, Blackgrass [13, 16] | Plant response rating, Galium [14, 16] | Plant response rating, Wheat [15, 16] | Plant response rating, Corn (corn (Zea mays); [16]) | also measured |
| --- | --- | --- | --- | --- | --- | --- | --- | --- | --- | --- | --- | --- | --- | --- | --- | --- | --- | --- | --- | --- | --- |
| O=C1NCC(c2cccc(Oc3ncc(F)cc3F)c2)C1C(=O)Nc1cccc(F)c1F (single isomer, unassigned) [Compound 71] | 0 | 70 | 0 | 30 | 0 | 0 | 0 | 0 | 90 | 80 | 70 | 20 | 30 | 0 | 70 | 50 | 0 | 50 | 0 | 20 | Plant response rating, Foxtail, Giant ([5]; 31 g ai/ha): 70; Plant response rating, Pigweed ([6]; 31 g ai/ha): 20; Plant response rating, Barnyardgrass ([7]; 31 g ai/ha): 30; Plant response rating, Kochia (kochia (Kochia scoparia) [8]; 31 g ai/ha): 0; Plant response rating, Ragweed ([9]; 31 g ai/ha): 0; Plant response rating, Ryegrass, Italian ([10]; 31 g ai/ha): 0; Plant response rating, Foxtail, Giant ([11]; 31 g ai/ha): 20; Plant response rating, Pigweed ([12]; 31 g ai/ha): 0; Plant response rating, Blackgrass ([13]; 31 g ai/ha): 0; Plant response rating, Galium ([14]; 31 g ai/ha): 30; Plant response rating, Wheat ([15]; 31 g ai/ha): 0; Plant response rating, Corn (corn (Zea mays); 31 g ai/ha): 0 |
| CN1CC(c2cccc(Oc3ncc(F)cc3F)c2)C(C(=O)Nc2ccccc2F)C1=O (single isomer, unassigned) [Compound 72] | 90 | 90 | 0 | 0 | 0 | 0 | 0 | 50 | 90 | 0 | 90 | 20 | 30 | 50 | 90 | 30 | 60 | 60 | 20 | 20 | Plant response rating, Foxtail, Giant ([5]; 31 g ai/ha): 90; Plant response rating, Pigweed ([6]; 31 g ai/ha): 0; Plant response rating, Barnyardgrass ([7]; 31 g ai/ha): 60; Plant response rating, Kochia (kochia (Kochia scoparia) [8]; 31 g ai/ha): 0; Plant response rating, Ragweed ([9]; 31 g ai/ha): 0; Plant response rating, Ryegrass, Italian ([10]; 31 g ai/ha): 20; Plant response rating, Foxtail, Giant ([11]; 31 g ai/ha): 80; Plant response rating, Pigweed ([12]; 31 g ai/ha): 0; Plant response rating, Blackgrass ([13]; 31 g ai/ha): 20; Plant response rating, Galium ([14]; 31 g ai/ha): 40; Plant response rating, Wheat ([15]; 31 g ai/ha): 0; Plant response rating, Corn (corn (Zea mays); 31 g ai/ha): 0 |
| CN1CC(c2cccc(Oc3ncc(F)cc3F)c2)C(C(=O)Nc2cccc(F)c2F)C1=O (single isomer, unassigned) [Compound 73] | 50 | 90 | 0 | 20 | 0 | 0 | 0 | 40 | 90 | 0 | 70 | 20 | 30 | 40 | 90 | 60 | 40 | 60 | 20 | 20 | Plant response rating, Foxtail, Giant ([5]; 31 g ai/ha): 80; Plant response rating, Pigweed ([6]; 31 g ai/ha): 0; Plant response rating, Barnyardgrass ([7]; 31 g ai/ha): 60; Plant response rating, Kochia (kochia (Kochia scoparia) [8]; 31 g ai/ha): 0; Plant response rating, Ragweed ([9]; 31 g ai/ha): 0; Plant response rating, Ryegrass, Italian ([10]; 31 g ai/ha): 0; Plant response rating, Foxtail, Giant ([11]; 31 g ai/ha): 60; Plant response rating, Pigweed ([12]; 31 g ai/ha): 50; Plant response rating, Blackgrass ([13]; 31 g ai/ha): 0; Plant response rating, Galium ([14]; 31 g ai/ha): 50; Plant response rating, Wheat ([15]; 31 g ai/ha): 20; Plant response rating, Corn (corn (Zea mays); 31 g ai/ha): 20 |
| CN1CC(c2cccc(Oc3ncc(F)cc3F)c2)C(C(=O)Nc2ccc(F)c(F)c2F)C1=O (single isomer, unassigned) [Compound 74] | 70 | 90 | 0 | 40 | 0 | 0 | 30 | 80 | 100 | 80 | 90 | 50 | 20 | 30 | 80 | 60 | 20 | 70 | 20 | 20 | Plant response rating, Foxtail, Giant ([5]; 31 g ai/ha): 90; Plant response rating, Pigweed ([6]; 31 g ai/ha): 0; Plant response rating, Barnyardgrass ([7]; 31 g ai/ha): 60; Plant response rating, Kochia (kochia (Kochia scoparia) [8]; 31 g ai/ha): 20; Plant response rating, Ragweed ([9]; 31 g ai/ha): 0; Plant response rating, Ryegrass, Italian ([10]; 31 g ai/ha): 0; Plant response rating, Foxtail, Giant ([11]; 31 g ai/ha): 70; Plant response rating, Pigweed ([12]; 31 g ai/ha): 0; Plant response rating, Blackgrass ([13]; 31 g ai/ha): 0; Plant response rating, Galium ([14]; 31 g ai/ha): 40; Plant response rating, Wheat ([15]; 31 g ai/ha): 0; Plant response rating, Corn (corn (Zea mays); 31 g ai/ha): 0 |
| O=C1NCC(c2cccc(OCC3CC3)c2)C1C(=O)Nc1ccc(F)cc1F (stereo not drawn) [Compound 3] |  | 40 |  | 0 |  | 0 |  | 0 | 60 | 0 | 10 | 0 | 0 | 0 | 20 | 0 | 0 | 20 | 0 | 0 | Plant response rating, Barnyardgrass ([1]; 500 g ai/ha): 70; Plant response rating, Kochia (kochia (Kochia scoparia) [2]; 500 g ai/ha): 20; Plant response rating, Ragweed ([3]; 500 g ai/ha): 0; Plant response rating, Ryegrass, Italian ([4]; 500 g ai/ha): 20; Plant response rating, Foxtail, Giant ([5]; 500 g ai/ha): 80; Plant response rating, Pigweed ([6]; 500 g ai/ha): 0; Plant response rating, Barnyardgrass [7, 17]: 60; Plant response rating, Kochia (kochia (Kochia scoparia) [8]; [17]): 40; Plant response rating, Ragweed [9, 17]: 0; Plant response rating, Ryegrass, Italian [10, 17]: 30; Plant response rating, Foxtail, Giant [11, 17]: 70; Plant response rating, Pigweed [12, 17]: 0; Plant response rating, Blackgrass [13, 17]: 30; Plant response rating, Galium [14, 17]: 40; Plant response rating, Wheat [15, 17]: 20; Plant response rating, Corn (corn (Zea mays); [17]): 20 |
| CC1(COc2cccc(C3CNC(=O)C3C(=O)Nc3cccc(F)c3F)c2)COC1 (stereo not drawn) [Compound 13] |  | 0 |  | 0 |  | 0 |  | 0 | 80 | 0 | 0 | 0 | 0 | 0 | 40 | 0 | 0 | 0 | 0 | 0 | Plant response rating, Barnyardgrass ([1]; 500 g ai/ha): 80; Plant response rating, Kochia (kochia (Kochia scoparia) [2]; 500 g ai/ha): 0; Plant response rating, Ragweed ([3]; 500 g ai/ha): 0; Plant response rating, Ryegrass, Italian ([4]; 500 g ai/ha): 0; Plant response rating, Foxtail, Giant ([5]; 500 g ai/ha): 90; Plant response rating, Pigweed ([6]; 500 g ai/ha): 0; Plant response rating, Barnyardgrass [7, 17]: 60; Plant response rating, Kochia (kochia (Kochia scoparia) [8]; [17]): 20; Plant response rating, Ragweed [9, 17]: 0; Plant response rating, Ryegrass, Italian [10, 17]: 30; Plant response rating, Foxtail, Giant [11, 17]: 70; Plant response rating, Pigweed [12, 17]: 0; Plant response rating, Blackgrass [13, 17]: 20; Plant response rating, Galium [14, 17]: 40; Plant response rating, Wheat [15, 17]: 0; Plant response rating, Corn (corn (Zea mays); [17]): 0 |
